Data taken from US10927170B2, “Anti-claudin 1 monoclonal antibodies for the prevention and treatment of hepatocellular carcinoma” (INSTITUT HOSPITALIER UNIVERSITAIRE DE STRASBOURG, priority 2015, dated 2021).

Experiments:
[1] = system: HCV Jc1-infected Huh7.5.1^dif cells; assay: 186-gene HCC risk signature (nCounter, GSEA, nearest template prediction) in persistently HCV Jc1-infected Huh7.5.1^dif cells; format: cell-based, human; conditions: for Reversal of HCC high-risk genes as shown by GSEA (FIG. 2A): DAA 1 nM DCV+1 μM SOF, interferon alpha-2a 10 IU/ml, erlotinib 0.1 μM, pioglitazone 1 μM, metformin 3 μM, mAb 1, 10 and 100 μg/ml
Method: Huh7.5.1 cells have already been described (Zhong et al., Proc Natl Acad Sci USA, 2005, 102(26): 9294-9299). For proliferation arrest and differentiation (Huh7.5.1^dif cells), 2.5.10^4 to 3.10^4 Huh7.5.1 cells were cultured in Dulbecco's Modified Eagle Medium (DMEM) containing 1% dimethylsulfoxide (DMSO).
Cell culture-derived HCVcc Jc1 (genotype 2a/2a) (Pietschmann et al., Proc Natl Acad Sci USA, 2006, 103(19): 7408-7413) were generated in Huh7.5.1 cells as previously described (Wakita et al., Nat Med., 2005, 11(7): 791-796). HCVcc infectivity was determined by calculating the 50% tissue culture infectious doses (TCID50) in infection experiments as previously described (Lindenbach et al., Science, 2005, 309(5734): 623-626). HCV infection was assessed by qRT-PCR of intracellular HCV RNA (Xiao et al., Gut, 2015, 64(3): 483-494) as well as by immunostaining using an HCV E2-specific AP33 antibody as previously described (Krieger et al., Hepatology. 2010, 51(4): 1144-1157).
Liver cells were lysed in TRI-reagent (Molecular Research Center), and RNA was purified using Direct-zol RNA MiniPrep (Zymo Research) according to the manufacturer's instructions. RNA quantity and quality were assessed using NanoDrop (ThermoScientific) and Bioanalyzer 2100 ([…]). Gene expression profiling was performed using 250-500 ng total RNA by using nCounter Digital Analyzer system (NanoString).
Cells incubated with 1% DMSO served as negative control. Three (3) days after treatment, the cells were lysed, total RNA was purified as described above, and analyzed for gene expression and intracellular viral load as described above.
Prediction of clinical outcome based on the 186-gene signature was performed as previously reported by using the nearest template prediction algorithm, which was implemented in GenePattern (King et al., Gut, 2014, 20. pii: gutjn1-2014-307862. doi: 10.1136/gutjn1-2014-307862; Hoshida et al., PLoS ONE, 2010, 5(11), e15543). A prediction of HCC high-risk or low-risk gene signature was determined using p<0.05 and FDR<0.25. Induction/suppression of each gene set over time according to HCV Jc1 infection and uninfected control was assessed through GSEA and single sample GSEA (ssGSEA) modules implemented in GenePattern as previously described (Subramanian et al., Proc Natl Acad Sci USA, 2005, 102(43): 15545-15550; Barbie et al., Nature, 2009, 462(7269): 108-112). […] Using differentially expressed genes, network analysis was performed using canonical pathways from Ingenuity Knowledge Base repository (Ingenuity Systems Inc.).

[2] = system: rodent models of cirrhosis-driven HCC; conditions: Fuchs et al., Hepatology, 2014; cited from earlier work
[3] = 186-gene signature, treatment from day 7 post-infection, nCounter assay

Row | Structure (SMILES) | NES, HCC high-risk genes (GSEA) [1, 3] | NES, HCC low-risk genes (GSEA) [1, 3] | Reversal of HCC high-risk genes as shown by GSEA (FIG. 2A) [1] | 186-gene HCC risk signature [2] | Liver fibrosis and HCC nodules [2]
1 | C#Cc1cccc(Nc2ncnc3cc(OCCOC)c(OCCOC)cc23)c1 [erlotinib] | −1.28 | 1.26 | partially reverses | reversed | reduced liver fibrosis and HCC nodules
2 | CN(C)C(=N)N=C(N)N [metformin] | – | – | had no effect | – | –
